Measured values: patent US20230233425A1, “USE OF VOLATILE COMPOSITIONS TO LIMIT OR ELIMINATE THE PERCEPTION OF MALODOR” (Firmenich SA, priority 2017, published 2023)
Like-named read-outs stand apart in the source and are kept apart here. Marks after values point to notes of the source that are not given here.

What was measured:
[1] = tested on: OR11A1, or the OR2M3 olfactory receptor; experiment: Geonol olfactory receptor antagonist cell-based screening, inhibitory dose-response vs geonol EC80; parameters: species or system human; settings: geonol at EC80; for IC50: read-out: IC50
[2] = tested on: geonol malodor (earthy/moss odor) perception; experiment: Sensory evaluation of geonol earthy/moss odor in iso-intense binary mixtures (glass jars); type: in vivo, human; settings: iso-intense binary mixture
From the text: (§1) Sensory Evaluation: Five 16 oz glass jars containing either REF (geonol only), geonol only control, antagonist only, mixture of geonol and isointense antagonist, or mixture of geonol and low intensity antagonist were presented to the panelists (last four samples were randomized across panelists). The panelists were asked to familiarize themselves with the earthy/moss odor quality from the REF jar first, then rate the pleasantness, earthy/moss odor intensity and overall odor intensity of the next four samples on a 0-10 linear scale. The inter-stimulus interval between the samples was two minutes to avoid adaptation.

[3] = tested on: geonol earthy/moss odor perception; experiment: Human sensory performance of test compounds with and without geonol; type: in vivo; settings: for % Earthy/Moss Odor: Test Compound Only
From the text: as §1, with “adaptation. […]” for “adaptation.”
The results are shown in Tables 16 and 17, and FIGS. 3 to 5.

[4] = molecular target: T1, OR51E1 olfactory receptor (Homo sapiens, UniProt Q8TCB6); experiment: Butyric acid olfactory receptor antagonist cell-based dose-response vs butyric acid EC80; settings: butyric acid at EC80; Table 5
T1 construct: expressed in transfected cells
T1 sequence (Q8TCB6 1-318): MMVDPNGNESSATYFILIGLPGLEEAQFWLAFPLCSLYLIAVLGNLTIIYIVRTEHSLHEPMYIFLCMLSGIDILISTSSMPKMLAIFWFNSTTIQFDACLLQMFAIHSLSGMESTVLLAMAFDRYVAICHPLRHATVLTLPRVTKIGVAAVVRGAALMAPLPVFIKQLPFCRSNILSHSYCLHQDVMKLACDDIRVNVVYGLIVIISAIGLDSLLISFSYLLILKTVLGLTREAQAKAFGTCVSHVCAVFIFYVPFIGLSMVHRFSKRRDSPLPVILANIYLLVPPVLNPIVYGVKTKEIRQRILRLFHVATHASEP

Olfr738 = Olfr738 (Mus musculus, UniProt L7N1X7); experiment: Indole antagonist dose-response, cAMP HTRF in HEK293T, vs indole EC80; type: cell-based; settings: vs indole EC80; for IC50: Table 22, first listing (r7-r45), read-out: Olfr738 IC50
Sequence of Olfr738 (L7N1X7 entry or part of it): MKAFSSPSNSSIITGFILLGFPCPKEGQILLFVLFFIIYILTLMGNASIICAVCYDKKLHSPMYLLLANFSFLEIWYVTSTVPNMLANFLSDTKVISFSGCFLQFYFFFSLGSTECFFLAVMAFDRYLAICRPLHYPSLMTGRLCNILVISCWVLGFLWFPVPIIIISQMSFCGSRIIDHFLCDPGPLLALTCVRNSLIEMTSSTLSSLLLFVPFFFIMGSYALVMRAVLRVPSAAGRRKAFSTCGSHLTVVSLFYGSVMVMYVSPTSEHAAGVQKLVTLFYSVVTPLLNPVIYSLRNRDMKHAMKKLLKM
Method: (§2) Using a cell-based assay, mouse receptor Olfr738, Olfr739, Olfr740, Olfr741, 0fr742, Olfr743, Olfr744, Olfr746, Olfr748 and Olfr749 were tested in an HEK293T cell line wherein the endogenous RTP1 gene has been activated and the odorant receptor chaperone was expressed (described in WO2016201153A1). The receptor genes were tagged with a Flag-Rho tag combination. Receptor genes were co-transfected with the canonical olfactory human G-protein alpha subunit Golf gene. Co-expression of the human Golf activates the Gs transduction pathway that leads to an internal cAMP increase upon binding to the appropriate ligand (indole here). Odorant-induced activity was detected by measuring the cAMP increase in the cytosol using an HTRF based kit (CisBio, cAMP dynamic 2 kit, cat. 62AM4PEJ).

Olfr740 = Olfr740 (Mus musculus, UniProt E9PV79); experiment: as above; type: cell-based; settings: vs indole EC80; for Emax: HEK-293T, read-out: Olfr740 % Inhibition; for IC50: Table 22, first listing (r7-r45), read-out: Olfr740 IC50
Sequence of Olfr740 (E9PV79 entry or part of it): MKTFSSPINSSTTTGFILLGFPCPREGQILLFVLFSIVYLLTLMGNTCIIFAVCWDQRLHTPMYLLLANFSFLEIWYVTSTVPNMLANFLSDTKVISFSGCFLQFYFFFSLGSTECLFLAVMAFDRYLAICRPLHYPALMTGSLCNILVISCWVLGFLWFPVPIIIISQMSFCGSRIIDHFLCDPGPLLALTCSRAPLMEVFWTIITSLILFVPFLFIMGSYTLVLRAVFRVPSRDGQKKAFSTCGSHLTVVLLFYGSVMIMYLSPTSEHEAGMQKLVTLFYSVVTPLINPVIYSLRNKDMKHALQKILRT
Method: as §2

Olfr741 = Olfr741 (Mus musculus, UniProt L7N1Y5); experiment: as above; type: cell-based
Sequence of Olfr741 (L7N1Y5 entry or part of it): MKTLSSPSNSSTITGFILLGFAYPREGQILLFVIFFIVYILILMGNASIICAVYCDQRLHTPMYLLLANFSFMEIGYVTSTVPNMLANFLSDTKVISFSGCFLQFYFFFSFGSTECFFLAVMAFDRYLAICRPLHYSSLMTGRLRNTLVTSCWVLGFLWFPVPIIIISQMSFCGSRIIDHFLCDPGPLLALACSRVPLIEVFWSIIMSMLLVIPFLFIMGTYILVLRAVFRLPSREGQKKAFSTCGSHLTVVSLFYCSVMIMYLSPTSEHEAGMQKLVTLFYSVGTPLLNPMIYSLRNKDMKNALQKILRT
Method: as §2

Olfr742 = Olfr742 (Mus musculus, UniProt A2RTP5); experiment: as above; type: cell-based; settings: vs indole EC80; for Emax: HEK-293T, read-out: Olfr742 % Inhibition
Sequence of Olfr742 (A2RTP5 entry or part of it): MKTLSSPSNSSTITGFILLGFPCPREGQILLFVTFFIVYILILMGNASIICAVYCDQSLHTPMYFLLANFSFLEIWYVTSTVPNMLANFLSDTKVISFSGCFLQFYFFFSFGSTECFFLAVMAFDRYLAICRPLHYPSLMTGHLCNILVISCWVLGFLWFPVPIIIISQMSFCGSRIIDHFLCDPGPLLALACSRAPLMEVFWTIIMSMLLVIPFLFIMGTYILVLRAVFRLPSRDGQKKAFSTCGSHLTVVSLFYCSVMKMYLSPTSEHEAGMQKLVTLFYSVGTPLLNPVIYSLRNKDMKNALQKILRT
Method: as §2

Olfr749 = molecular target: T2, Olfr749 (Mus musculus, UniProt E9Q438); experiment: as above; type: cell-based; settings: Table 23
T2 construct: Flag; Rho tag; expressed in transfected cells
T2 sequence (E9Q438 1-313): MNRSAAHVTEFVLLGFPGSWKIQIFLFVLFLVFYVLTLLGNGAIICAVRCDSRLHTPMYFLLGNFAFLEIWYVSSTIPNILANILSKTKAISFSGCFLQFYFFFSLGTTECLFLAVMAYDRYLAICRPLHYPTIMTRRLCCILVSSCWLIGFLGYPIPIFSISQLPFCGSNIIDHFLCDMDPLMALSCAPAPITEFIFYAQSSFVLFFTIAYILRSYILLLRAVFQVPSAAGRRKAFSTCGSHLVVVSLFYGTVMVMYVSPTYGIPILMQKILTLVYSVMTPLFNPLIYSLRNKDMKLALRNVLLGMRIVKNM
Method: as §2, with “Functional dose-response experiments were performed to identify compounds capable of antagonizing indole-sensitive receptors previously identified (U.S. Pat. No. 9,914,760 B2). Using” for “Using”, “62AM4PEJ). The receptors were exposed to binary mixtures of increasing concentrations of the test compounds in the presence of a potent activation concentration of indole (EC80) for each receptor. […] All the compounds listed decreased the indole induced activity of at least one receptor.” for “62AM4PEJ).”

Olfr739 = Olfr739 (Mus musculus, UniProt E9Q1P0); experiment: as above; type: cell-based
Sequence of Olfr739 (E9Q1P0 entry or part of it): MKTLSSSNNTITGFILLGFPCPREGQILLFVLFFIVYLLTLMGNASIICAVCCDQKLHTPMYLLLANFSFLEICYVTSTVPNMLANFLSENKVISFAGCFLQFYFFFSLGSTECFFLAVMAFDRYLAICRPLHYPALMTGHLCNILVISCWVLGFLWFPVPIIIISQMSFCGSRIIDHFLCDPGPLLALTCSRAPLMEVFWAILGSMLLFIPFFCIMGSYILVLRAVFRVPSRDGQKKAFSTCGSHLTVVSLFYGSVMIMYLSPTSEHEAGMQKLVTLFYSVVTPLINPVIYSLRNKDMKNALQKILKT
Method: as §2, with “Functional dose-response experiments were performed to identify compounds capable of antagonizing indole-sensitive receptors previously identified (U.S. Pat. No. 9,914,760 B2). Using” for “Using”, “62AM4PEJ). The receptors were exposed to binary mixtures of increasing concentrations of the test compounds in the presence of a potent activation concentration of indole (EC80) for each receptor. […] All the compounds listed decreased the indole induced activity of at least one receptor.” for “62AM4PEJ).”

[5] = tested on: 1-octen-3-ol mushroom/earthy/fungal odor perception; experiment: Human sensory performance of test compounds with and without 1-octen-3-ol; type: in vivo; settings: for % Mushroom/Earthy/Fungal Odor: Test Compound Only
[6] = tested on: OR2W1 or the OR1A1 olfactory receptor; experiment: 1-octen-3-ol olfactory receptor antagonist cell-based dose-response vs 1-octen-3-ol EC80; settings: for IC50: 1-octen-3-ol at EC80; for % Inhibition: maximum inhibition normalized to baseline agonist activity
From the text: Each cell line was screened with a volatile compound library for their inhibitory properties and potential 1-octen-3-ol smell inhibition.
Single concentration monitoring of the 1-octen-3-ol induced cell activity in the presence or absence of a test compound allowed for the identification of compounds with a putative suppression or inhibitory effect.

Olfr744 = molecular target: T3, Olfr744 (Mus musculus, UniProt Q7TRM0); experiment: Indole antagonist dose-response, cAMP HTRF in HEK293T, vs indole EC80; type: cell-based; settings: Table 23
T3 construct: Flag; Rho tag; expressed in transfected cells
T3 sequence (Q7TRM0 1-323): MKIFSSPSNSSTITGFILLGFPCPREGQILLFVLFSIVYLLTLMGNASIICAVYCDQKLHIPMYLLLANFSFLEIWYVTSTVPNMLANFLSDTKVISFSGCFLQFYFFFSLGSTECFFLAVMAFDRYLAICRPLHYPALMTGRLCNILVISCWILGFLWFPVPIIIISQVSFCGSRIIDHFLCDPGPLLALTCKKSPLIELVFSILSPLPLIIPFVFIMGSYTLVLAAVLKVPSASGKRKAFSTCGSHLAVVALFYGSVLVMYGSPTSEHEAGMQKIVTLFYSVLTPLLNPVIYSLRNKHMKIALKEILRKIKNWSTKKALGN
Method: as §2, with “Functional dose-response experiments were performed to identify compounds capable of antagonizing indole-sensitive receptors previously identified (U.S. Pat. No. 9,914,760 B2). Using” for “Using”, “62AM4PEJ). The receptors were exposed to binary mixtures of increasing concentrations of the test compounds in the presence of a potent activation concentration of indole (EC80) for each receptor. […] All the compounds listed decreased the indole induced activity of at least one receptor.” for “62AM4PEJ).”

[7] = tested on: 1-octen-3-ol receptors OR2W1, Olfr93, Olfr120, Olfr398; experiment: Antagonists of 1-octen-3-ol receptors (Example 11); type: cell-based, mouse and human; parameters: Inhibition(%): concentration or dose not given beside the values; settings: Table 19
[8] = Table 22, second listing of the same compounds

| IC50 [1] | Molecule | % Inhibition [1] | % Remaining in human sensory tests [2] | % Earthy/Moss Odor [3] | % Mushroom/Earthy/Fungal Odor [5] | further results |
| --- | --- | --- | --- | --- | --- | --- |
| 133 µM | CC(=O)CCC=C(C)CCC=C(C)C [6,10-dimethylundeca-5,9-dien-2-one] | 50% | 45* % | 52.80% | – | – |
| 156 µM | CCC=CCCC=CC=O [nona-2,6-dienal] | 80% | 67% | 65.40% | – | – |
| – | C/C=C/C(=O)C1C(C)=CCCC1(C)C (racemic) [(+−)-(2E)-1-(2,6,6-trimethyl-2-cyclohexen-1-yl)-2-buten-1-one] | – | – | – | – | IC50 [4]: 50.5 µM; IC50 (Olfr738): 99.8 µM; Olfr738 % Inhibition (Olfr738; Table 22, first listing): 12.19%; Emax (Olfr740; Table 22, first listing): 115%; IC50 (Olfr740): 137 µM; IC50 (Olfr741; Table 22, first listing): 110 µM; Olfr741 % Inhibition (Olfr741; Table 22, first listing): 75.65%; Emax (Olfr742; Table 22, first listing): 113%; Emax (Olfr742; [8]): 47.9%; IC50 (Olfr742; Table 22, first listing (r7-r45), read-out: Olfr742 IC50): 95.4 µM; IC50 (Olfr749): 156 µM; Olfr749 % Inhibition (Olfr749): 47.86% |
| – | CC1(C)CCCC2(C)CC(=O)CCC12 (racemic) | – | – | – | – | Olfr738 % Inhibition (Olfr738; [8]): 123.10%; Emax (Olfr740; [8]): 81.4%; IC50 (Olfr741; [8]): 106 µM; Olfr741 % Inhibition (Olfr741; [8]): 65.60%; Emax (Olfr742; [8]): 97%; Olfr739 % Inhibition (Olfr739; [8]): 107.89% |
| 301 µM | CC=CC(=O)C1C(C)C=CCC1(C)C (centres unmarked) [1-(2,6,6-trimethyl-1-cyclohex-3-enyl)but-2-en-1-one] | 10% | 66* % | 31.80% | 24.00% | IC50 [4]: 210 µM |
| 81 µM | 1,4,8-trimethyl-13-oxabicyclo[10.1.0]trideca-4,8-diene; 1,5,8-trimethyl-13-oxabicyclo[10.1.0]trideca-4,8-diene | 50% | 85% | 43.30% | 30.20% | % Earthy/Moss Odor Remaining ([3]; Low Dilution Test Compound + Geonol (0.1%)): 92.00%; % Earthy/Moss Odor Remaining ([3]; Medium Dilution Test Compound + Geonol (0.1%)): 91.50%; % Mushroom/Earthy/Fungal Odor Remaining ([5]; Low Dilution Test Compound + 1-octen-3-ol (0.15%)): 93.80%; % Mushroom/Earthy/Fungal Odor Remaining ([5]; Medium Dilution Test Compound + 1-octen-3-ol (0.15%)): 79.50%; IC50 [6]: 266 µM; % Inhibition [6]: 70.92% |
| – | CC(C)(C)C1CCC(=O)CC1 [4-t-butylcyclohexanone] | – | – | – | – | IC50 (Olfr738): 43.1 µM; Olfr738 % Inhibition (Olfr738; Table 22, first listing): 52.44%; Emax (Olfr740; Table 22, first listing): 213%; IC50 (Olfr740): 10.6 µM; Olfr739 % Inhibition (Olfr739; Table 22, first listing): 60.32%; IC50 (Olfr739; Table 22, first listing (r7-r45)): 69.9 µM; Olfr739 % Inhibition (Olfr739; [8]): 148.19%; IC50 (Olfr744): 175 µM; Olfr744 % Inhibition (Olfr744): 148.19% |
| 555 µM | CCCCCCc1ccc(C)nc1 [5-hexyl-2-methylpyridine 10% Citr, 5-hexyl-2-methylpyridine] | – | 37% | 46.40% | – | – |
| 107 µM | Cc1ccc(C(C)C)c(O)c1 [thymol, 5-Methyl-2-(propan-2-yl)phenol] | 100% | 53% | 54.70% | – | – |
| 111 µM | CC=Cc1ccc(OCC)c(O)c1 [Compound 2-ethoxy-5-prop-1-enylphenol, 2-ethoxy-5-prop-1-enylphenol] | 33% | 34* % | 27.10% | 23.20% | – |
| 61 µM | O=C1CCC=CCCCCCCCCCC1 [cyclopentadec-4-en-1-one] | 45% | 47% | 49.90% | 25.80% | IC50 [7]: 57.8 µM; Inhibition(%) [7]: 130% |
| – | CC(=O)OC(c1ccccc1)C(Cl)(Cl)Cl (centres unmarked) [(2,2,2-trichloro-1-phenylethyl) acetate] | – | 61% | 38.60% | 30.00% | – |
| – | Cc1ccc2c(c1)CC(C)(CO)C2 (centres unmarked) [(2,5-dimethyl-1,3-dihydroinden-2-yl)methanol] | – | 37* % | 41.70% | 36.30% | – |

| Molecule | IC50 [1] | % Inhibition [1] | % Remaining in human sensory tests [2] | % Earthy/Moss Odor [3] | % Mushroom/Earthy/Fungal Odor [5] | further results |
| --- | --- | --- | --- | --- | --- | --- |
| CC(C)(C)c1ccccc1O [2-tertbutyl phenol] | 88 µM | 100% | 46* % | 41.30% | – | IC50 [6]: 37 µM; % Inhibition [6]: 100.34% |
